Measurements from PubChem BioAssay (NCI).
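Each compound was tested at five concentrations against cells in 96-well plates for 48 hours. Abbreviation: GI50, concentration required for 50% inhibition of growth. TGI marks complete inhibition of growth.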

Legend:
Experiment in all cases: NCI anticancer screen, dose series, 48 h
A549 NSCLC = system: A549 NSCLC
SK-MEL-28 melanoma = system: SK-MEL-28 melanoma
CAKI-1 renal = system: CAKI-1 renal
SF-268 CNS = system: SF-268 CNS
HCT-15 colon = system: HCT-15 colon
ACHN renal = system: ACHN renal
OVCAR-8 ovarian = system: OVCAR-8 ovarian
BT-549 breast = system: BT-549 breast
U251 CNS = system: U251 CNS
786-0 renal = system: 786-0 renal
MALME-3M melanoma = system: MALME-3M melanoma
NCI-H522 lung = system: NCI-H522 lung
SF-295 CNS = system: SF-295 CNS
COLO 205 colon = system: COLO 205 colon
CCRF-CEM leukemia = system: CCRF-CEM leukemia
MCF7 breast = system: MCF7 breast
SK-MEL-2 melanoma = system: SK-MEL-2 melanoma
LOX IMVI melanoma = system: LOX IMVI melanoma
SR leukemia = system: SR leukemia
PC-3 prostate = system: PC-3 prostate
OVCAR-3 ovarian = system: OVCAR-3 ovarian
EKVX NSCLC = system: EKVX NSCLC
A498 renal = system: A498 renal
NCI-H226 lung = system: NCI-H226 lung
SN12C renal = system: SN12C renal
IGROV1 ovarian = system: IGROV1 ovarian
MDA-MB-435 = system: MDA-MB-435
M14 melanoma = system: M14 melanoma
K-562 leukemia = system: K-562 leukemia
OVCAR-5 ovarian = system: OVCAR-5 ovarian
HOP-92 NSCLC = system: HOP-92 NSCLC
MDA-MB-468 breast = system: MDA-MB-468 breast
NCI-H460 lung = system: NCI-H460 lung
SK-OV-3 ovarian = system: SK-OV-3 ovarian
T-47D breast = system: T-47D breast
SW-620 colon = system: SW-620 colon
OVCAR-4 ovarian = system: OVCAR-4 ovarian
HOP-62 NSCLC = system: HOP-62 NSCLC
UO-31 renal = system: UO-31 renal
RXF 393 renal = system: RXF 393 renal
HCT-116 colon = system: HCT-116 colon
HS 578T breast = system: HS 578T breast
HL-60(TB) leukemia = system: HL-60(TB) leukemia
MDA-MB-231 breast = system: MDA-MB-231 breast
NCI-H23 lung = system: NCI-H23 lung
SF-539 CNS = system: SF-539 CNS
SNB-19 CNS = system: SNB-19 CNS
SK-MEL-5 melanoma = system: SK-MEL-5 melanoma
HCC-2998 colon = system: HCC-2998 colon
MOLT-4 leukemia = system: MOLT-4 leukemia
KM12 colon = system: KM12 colon
RPMI-8226 leukemia = system: RPMI-8226 leukemia
SNB-75 CNS = system: SNB-75 CNS
DU-145 prostate = system: DU-145 prostate
TK-10 renal = system: TK-10 renal
UACC-62 melanoma = system: UACC-62 melanoma
UACC-257 melanoma = system: UACC-257 melanoma
HT29 colon = system: HT29 colon

Compound: O=c1cc(-c2ccccc2)oc2cc(OCCCCNCc3ccccc3)cc(O)c12
- GI50 (A549 NSCLC): 7.94 µM
- TGI (A549 NSCLC): 21.1 µM
- GI50 (SK-MEL-28 melanoma): 3.24 µM
- TGI (SK-MEL-28 melanoma): 9.38 µM
- GI50 (CAKI-1 renal): 10.2 µM
- TGI (CAKI-1 renal): 22.3 µM
- GI50 (SF-268 CNS): 10.6 µM
- TGI (SF-268 CNS): 27 µM
- GI50 (HCT-15 colon): 3.48 µM
- TGI (HCT-15 colon): 12.8 µM
- GI50 (ACHN renal): 12.2 µM
- TGI (ACHN renal): 26.9 µM
- GI50 (OVCAR-8 ovarian): 12.6 µM
- TGI (OVCAR-8 ovarian): 28.7 µM
- GI50 (BT-549 breast): 13.2 µM
- TGI (BT-549 breast): 26.7 µM
- GI50 (U251 CNS): 6.11 µM
- TGI (U251 CNS): 19.1 µM
- GI50 (786-0 renal): 4.54 µM
- TGI (786-0 renal): 18.6 µM
- GI50 (MALME-3M melanoma): 2.19 µM
- TGI (MALME-3M melanoma): 7.29 µM
- GI50 (NCI-H522 lung): 13.1 µM
- TGI (NCI-H522 lung): 29.3 µM
- GI50 (SF-295 CNS): 11.7 µM
- TGI (SF-295 CNS): 24.4 µM
- GI50 (COLO 205 colon): 5.13 µM
- TGI (COLO 205 colon): 18.4 µM
- GI50 (CCRF-CEM leukemia): 2.89 µM
- TGI (CCRF-CEM leukemia): 15.8 µM
- GI50 (MCF7 breast): 3.43 µM
- TGI (MCF7 breast): 14.9 µM
- GI50 (SK-MEL-2 melanoma): 16.3 µM
- TGI (SK-MEL-2 melanoma): 30.2 µM
- GI50 (LOX IMVI melanoma): 3.13 µM
- TGI (LOX IMVI melanoma): 11.2 µM
- GI50 (SR leukemia): 1.79 µM
- TGI (SR leukemia): 4.63 µM
- GI50 (PC-3 prostate): 5.01 µM
- TGI (PC-3 prostate): 19.9 µM
- GI50 (OVCAR-3 ovarian): 12 µM
- TGI (OVCAR-3 ovarian): 25 µM
- GI50 (EKVX NSCLC): 12.7 µM
- TGI (EKVX NSCLC): 25.9 µM
- GI50 (A498 renal): 19.8 µM
- TGI (A498 renal): 36.8 µM
- GI50 (NCI-H226 lung): 13.5 µM
- TGI (NCI-H226 lung): 32 µM
- GI50 (SN12C renal): 12.7 µM
- TGI (SN12C renal): 28 µM
- GI50 (IGROV1 ovarian): 11.4 µM
- TGI (IGROV1 ovarian): 26.6 µM
- GI50 (MDA-MB-435): 7.98 µM
- TGI (MDA-MB-435): 20.5 µM
- GI50 (M14 melanoma): 2.02 µM
- TGI (M14 melanoma): 4.48 µM
- GI50 (K-562 leukemia): 1.97 µM
- TGI (K-562 leukemia): 7.35 µM
- GI50 (OVCAR-5 ovarian): 19 µM
- TGI (OVCAR-5 ovarian): 35.7 µM
- GI50 (HOP-92 NSCLC): 3.73 µM
- TGI (HOP-92 NSCLC): 21.1 µM
- GI50 (MDA-MB-468 breast): 2.55 µM
- TGI (MDA-MB-468 breast): 11.1 µM
- GI50 (NCI-H460 lung): 4.96 µM
- TGI (NCI-H460 lung): 17.4 µM
- GI50 (SK-OV-3 ovarian): 14.6 µM
- TGI (SK-OV-3 ovarian): 28 µM
- GI50 (T-47D breast): 13.7 µM
- TGI (T-47D breast): 33.1 µM
- GI50 (SW-620 colon): 10.2 µM
- TGI (SW-620 colon): 23.4 µM
- GI50 (OVCAR-4 ovarian): 8.92 µM
- TGI (OVCAR-4 ovarian): 23.6 µM
- GI50 (HOP-62 NSCLC): 13.2 µM
- TGI (HOP-62 NSCLC): 27.5 µM
- GI50 (UO-31 renal): 6.11 µM
- TGI (UO-31 renal): 21.1 µM
- GI50 (RXF 393 renal): 1.91 µM
- TGI (RXF 393 renal): 10.1 µM
- GI50 (HCT-116 colon): 4.28 µM
- TGI (HCT-116 colon): 17.2 µM
- GI50 (HS 578T breast): 11 µM
- TGI (HS 578T breast): 32 µM
- GI50 (HL-60(TB) leukemia): 1.12 µM
- TGI (HL-60(TB) leukemia): 3.43 µM
- GI50 (MDA-MB-231 breast): 7.02 µM
- TGI (MDA-MB-231 breast): 21.3 µM
- GI50 (NCI-H23 lung): 13.8 µM
- TGI (NCI-H23 lung): 27.4 µM
- GI50 (SF-539 CNS): 11.7 µM
- TGI (SF-539 CNS): 25.3 µM
- GI50 (SNB-19 CNS): 13.3 µM
- TGI (SNB-19 CNS): 27.9 µM
- GI50 (SK-MEL-5 melanoma): 12.2 µM
- TGI (SK-MEL-5 melanoma): 24.7 µM
- GI50 (HCC-2998 colon): 2.3 µM
- TGI (HCC-2998 colon): 5.74 µM
- GI50 (MOLT-4 leukemia): 2.12 µM
- TGI (MOLT-4 leukemia): 9.43 µM
- GI50 (KM12 colon): 5.7 µM
- TGI (KM12 colon): 18.9 µM
- GI50 (RPMI-8226 leukemia): 2.25 µM
- TGI (RPMI-8226 leukemia): 6.98 µM
- GI50 (SNB-75 CNS): 10.5 µM
- TGI (SNB-75 CNS): 22.4 µM
- GI50 (DU-145 prostate): 12.2 µM
- TGI (DU-145 prostate): 24.5 µM
- GI50 (TK-10 renal): 15.5 µM
- TGI (TK-10 renal): 29.5 µM
- GI50 (UACC-62 melanoma): 2.16 µM
- TGI (UACC-62 melanoma): 4.79 µM
- GI50 (UACC-257 melanoma): 2.99 µM
- TGI (UACC-257 melanoma): 9.75 µM
- GI50 (HT29 colon): 2.95 µM
- TGI (HT29 colon): 12 µM
